# Results reported in US20130022640A1, “IMMUNE MODULATORS RELATING TO FOXO3A” (Secretary, Department of Health and Human Services, priority 2010, published 2013).
# Tests used:
# TRAMP mice = test: UGT and prostate weights (tumor burden) after TcR-I transfer; assay type: in vivo, mouse; conditions: day 12 after TcR-I transfer, vs control/untreated
# Protocol: (§1) Lymph node (LN) cells from TcR-I mice were prepared in a single-cell suspension. Cell numbers were adjusted to 3×10^6 TcR-I cells to be transferred intravenously (i.v.) into recipient mice. In some experiments, inhibitors to IDO (1-methly-D-tryptophan, 1MDT) and arginase ((S) 2-bronoethyl)-L-cysteine (BEC)) were added to the drinking water every 3 days (5 μg/ml).
# (§2) A blocking anti-PD-1 antibody (Ab) (clone RMP1-14) (Yamazaki et al., J. Immunol., 175: 1586-1592 (2005)) was administered by intraperitoneal (i.p.) injection on days 0, 1, and 3 with respect to adoptive transfer of TcR-I T cells (250 μg/injection). Anti-TGF-β Ab was injected i.p. on days −1,0,1 and 2 with respect to TcR-I transfer (500 μg/injection). Anti-CD317 Ab (5 μg) (kindly provided by Dr. Marco Colonna) was injected i.p. on days −1 and 0 with respect to TcR-I transfer (Blasius et al., J. Immunol., 177: 3260-3265 (2006)).
# Control antibody or anti-CD317 antibody was injected i.p. into TRAMP mice on days −1 and 0 relative to T cell transfer. Weights of total urogenital tract (UGT) and dissected prostates were obtained at day 12. […]
# Given the enhanced effector functions seen following inhibitory molecule blockade, the effect of blocking these suppressive mediators on anti-tumor immunity was tested. […] UGT weights (FIG. 7A) and prostate weights (FIG. 7B) were assessed on day 12 after TcR-I transfer.
# TcR-I T cells [1] = test: In vitro suppressor assay after 4 day culture of TcR-I T cells with TRAMP DC and blocking agents; assay type: cell-based, mouse; conditions: TRAMP DC + agent
# Protocol: (§3) Naïve TcR-I T cells were co-cultured with DC for 72 hours. TcR-I cells were then re-isolated via negative selection with magnetic beads. To assess tolerance, TcR-I T cells were subjected to secondary stimulation with normal splenocytes and TAg. After 48 hours, wells were pulsed with 1 μCi [^3H] thymidine (Amersham, Buckinghamshire, England) for 12 hours. To assess suppressor activity, graded numbers of TcR-I T cells were added to 1×10^4 responder 37B7 TRP-2-specific T cells (Singh et al., J. Immunother., 32: 129-139 (2009)), 1×10^5 splenocytes, and 5 μM TRP-2, and incubated for 72 h at 37° C. One μCi of [^3H] thymidine per well was added for an additional 16 h and harvested as described above.
# (§4) To investigate the effects of blocking IDO in vitro, 1MDT was also added to purified DC cultures to inhibit IDO activity during DC stimulation of TcR-I proliferation (FIG. 6A). Tolerance was assessed by testing secondary stimulation 4 days after primary culture with 1 MDT, a blocking agent to suppressive mediator IDO (FIG. 6D).
# (§5) To investigate the effects of blocking PD-1 in vitro, anti-PD-1 antibody was added to cultures of TcR-I T cells and TRAMP or WT prostate DCs. Tolerance was assessed by testing secondary stimulation 4 days after primary culture with blocking agents, including anti-PD-1 antibody, to suppressive mediators (FIG. 6D). Suppressor activity was also measured after 4 day culture with blocking agents, including anti-PD-1 antibody, and the results are shown in Table 9.
# TcR-I T cells [2] = test: ELISPOT (IFN-γ, granzyme B) of TcR-I T cells re-isolated from treated TRAMP mice; assay type: in vivo, mouse
# Protocol: as §1, §2
# Multiscreen plates (Millipore, Billerica, Mass.) were coated with 100 μl of capture Ab (R&D Systems Inc., Minneapolis, Minn.) overnight at 4° C. IFN-γ (1×10^5) or granzyme B (2×10^4) purified Thy 1.1^+ TcR T cells were added to increasing concentrations of TAg560-568. After incubation, plates were washed and processed as previously described (Shafer-Weaver et al., Cancer Research, 69: 6256-6264 (2009)).
# It was next determined whether in vivo depletion of TADCs enhanced TcR-I effector function. TADCs were depleted via i.p. injection of anti-CD317 Ab into TRAMP mice. TcR-I T cells were then transferred into TRAMP mice with or without DC depletion. T cells were re-isolated on days 6 (FIGS. 3A and 3B) or 12 (FIGS. 3C and 3D) after transfer to assess CTL effector function.
# Selective amino acid catabolism is a previously-described mechanism of immune dysfunction in cancer (Bronte et al., J. Exp. Med., 201: 1257-1268 (2005); Sharma et al., J. Clin. Invest., 117: 2570-2582 (2007); Srivastava et al., Cancer Res., 70: 68-77 (2010)). […]
# TcR-I T cells [3] = test: In vitro TcR-I proliferation and tolerance with TRAMP DCs and blocking agents; assay type: cell-based, mouse
# Protocol: Naïve TcR-I T cells were used as responder cells in a proliferation assay; 2×10^4 T cells were stimulated with antigen and 2×10^4 isolated prostatic DCs. After 72 h of culture, wells were pulsed with 1 μCi [^3H] thymidine (Amersham, Buckinghamshire, England) for 16 h. The cells were then harvested using a Cell Harvester (Tomtec, Hamden, Conn.) and radioactivity was measured in a Liquid Scintillation Counter (WALLAC MICROBETA™ TriLux, PerkinElmer, Waltham, Mass.).
# as §3, with “To assess suppressor activity, graded numbers of TcR-I T cells were added to 1×10^4 responder 37B7 TRP-2-specific T cells (Singh et al., J. Immunother., 32: 129-139 (2009)), 1×10^5 splenocytes, and 5 μM TRP-2, and incubated for 72 h at 37° C.” left out
# as §4
# as §5, with “6D).” for “6D). Suppressor activity was also measured after 4 day culture with blocking agents, including anti-PD-1 antibody, and the results are shown in Table 9.”
# [4] = 6 days after transfer into TRAMP mice, vs untreated/control Ab
smiles,measurement,setting,value
"Cn1cc(C[C@@H](N)C(=O)O)c2ccccc21 [1MDT, 1-methyl-D-tryptophan]",prostate weight,TRAMP mice,statistically significant decrease
same,total urogenital tract (UGT) weight,TRAMP mice,statistically significant decrease
same,% Suppression for Each Source of Primary Stimulation,TcR-I T cells [1]; Suppressor:Responder 1:1,20%
same,% Suppression for Each Source of Primary Stimulation,TcR-I T cells [1]; Suppressor:Responder 1:2,15%
same,% Suppression for Each Source of Primary Stimulation,TcR-I T cells [1]; Suppressor:Responder 1:4,8%
same,% Suppression for Each Source of Primary Stimulation,TcR-I T cells [1]; Suppressor:Responder 2:1,30%
same,IFN-γ secretion by TcR-I T cells,TcR-I T cells [2]; [4],significantly increased
same,granzyme B secretion by TcR-I T cells,TcR-I T cells [2]; [4],significantly increased
same,TcR-I T cell antigen responsiveness,"TcR-I T cells [2]; day 12 after transfer / 12 days of treatment, TRAMP mice",loss of antigen responsiveness
same,TADC-stimulated TcR-I proliferation,"TcR-I T cells [3]; agent added to in vitro culture, primary stimulation",enhanced
same,tolerization of TcR-I T cells during co-culture,TcR-I T cells [3]; secondary stimulation 4 days after primary culture with agent,did not prevent them from becoming tolerized
N=C(NO)NCC[C@H](N)C(=O)O [Nor-NOHA],TcR-I responsiveness (block of in vitro tolerization),TcR-I T cells [3]; blocking ARG in vitro,did not enhance TcR-I responsiveness
